Laboratory results published in PubChem BioAssay AID248 (DTP/NCI, 2004).
Values joined by “and” are separate entries in the source; they are usually repeats but may differ in a detail not shown here. Identical values can stand only once. Inconclusive results and toxic doses are left out. Rule as the data show it: active = T/C of 150% or more; inactive = T/C below 125%.

System: L1210 leukemia ip in BDF1 mice, survival T/C
Test: NCI In Vivo Anticancer Drug Screen. Data for tumor model L1210 Leukemia (intraperitoneal) in B6D2F1 (BDF1) mice
Conditions: endpoint: mean survival time, higher = longer survival
In short: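 Ratio derived from survival: compound-dosed mice over vehicle-dosed mice, all bearing a transplantable tumor.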

[1] = dose: 6.25 mg/kg/injection, schedule: Q01DX009 (ip), vehicle: saline
[2] = dose: 12.5 mg/kg/injection, schedule: Q01DX009 (ip), vehicle: saline
[3] = dose: 25.0 mg/kg/injection, schedule: Q01DX009 (ip), vehicle: saline
[4] = dose: 100.0 mg/kg/injection, schedule: Q01DX009 (ip), vehicle: Klucel (hydroxypropylcellulose) (HPC)
[5] = dose: 200.0 mg/kg/injection, schedule: Q01DX009 (ip), vehicle: Klucel (hydroxypropylcellulose) (HPC)
[6] = dose: 400.0 mg/kg/injection, schedule: Q01DX009 (ip), vehicle: Klucel (hydroxypropylcellulose) (HPC)
[7] = dose: 100.0 mg/kg/injection, schedule: Q04DX003 (ip), vehicle: Klucel (hydroxypropylcellulose) (HPC)
[8] = dose: 200.0 mg/kg/injection, schedule: Q04DX003 (ip), vehicle: Klucel (hydroxypropylcellulose) (HPC)
[9] = dose: 400.0 mg/kg/injection, schedule: Q04DX003 (ip), vehicle: Klucel (hydroxypropylcellulose) (HPC)
[10] = dose: 100.0 mg/kg/injection, schedule: Q04DX002 (ip), vehicle: saline
[11] = dose: 200.0 mg/kg/injection, schedule: Q04DX002 (ip), vehicle: saline
[12] = dose: 400.0 mg/kg/injection, schedule: Q04DX002 (ip), vehicle: saline
[13] = dose: 100.0 mg/kg/injection, schedule: Q01DX001 (ip), vehicle: saline
[14] = dose: 200.0 mg/kg/injection, schedule: Q01DX001 (ip), vehicle: saline
[15] = dose: 400.0 mg/kg/injection, schedule: Q01DX001 (ip), vehicle: saline
[16] = dose: 100.0 mg/kg/injection, schedule: Q01DX001 (ip), vehicle: carboxymethylcellulose (CMC)
[17] = dose: 200.0 mg/kg/injection, schedule: Q01DX001 (ip), vehicle: carboxymethylcellulose (CMC)
[18] = dose: 400.0 mg/kg/injection, schedule: Q01DX001 (ip), vehicle: carboxymethylcellulose (CMC)
[19] = dose: 100.0 mg/kg/injection, schedule: Q04DX003 (ip), vehicle: saline with Tween-80
[20] = dose: 200.0 mg/kg/injection, schedule: Q04DX003 (ip), vehicle: saline with Tween-80
[21] = dose: 400.0 mg/kg/injection, schedule: Q04DX003 (ip), vehicle: saline with Tween-80

Measured: T/C

C=C(C)C[N+]1(CC)CCN=C1CCCCCCCCCCCCCCCCC (stereo not drawn)
inactive: dose: 0.31 mg/kg/injection, schedule: Q01DX Z (ip), vehicle: saline 100 % of control | dose: 0.47 mg/kg/injection, schedule: Q01DX Z (ip), vehicle: saline 96 % of control | dose: 0.7 mg/kg/injection, schedule: Q01DX Z (ip), vehicle: saline 102 % of control | dose: 1.05 mg/kg/injection, schedule: Q01DX Z (ip), vehicle: saline 96 % of control

CCCCCCCCc1ccc(NNC(N)=S)cc1
inactive: dose: 3.12 mg/kg/injection, schedule: Q01DX009 (ip), vehicle: saline 93 % of control | [1] 101 % of control and 92 % of control | [2] 103 % of control | [3] 100 % of control

CC(CO)(NC(=O)OCc1ccccc1)C(=O)O (stereo not drawn)
inactive: dose: 100.0 mg/kg/injection, schedule: Q01DX009 (ip), vehicle: acetone 94 % of control | dose: 200.0 mg/kg/injection, schedule: Q01DX009 (ip), vehicle: acetone 92 % of control | dose: 400.0 mg/kg/injection, schedule: Q01DX009 (ip), vehicle: acetone 92 % of control

Cc1ccc2ccc3ccc(C)nc3c2n1
inactive: dose: 12.5 mg/kg/injection, schedule: Q04DX003 (ip), vehicle: Klucel (hydroxypropylcellulose) (HPC) 99 % of control | dose: 25.0 mg/kg/injection, schedule: Q04DX003 (ip), vehicle: Klucel (hydroxypropylcellulose) (HPC) 97 % of control | dose: 50.0 mg/kg/injection, schedule: Q04DX003 (ip), vehicle: Klucel (hydroxypropylcellulose) (HPC) 101 % of control

CCOC(=O)c1ccc(NC(=O)Oc2ccccc2C(=O)OC)cc1
inactive: [4] 96 % of control | [5] 97 % of control | [6] 93 % of control

CCC(NC(=O)c1ccccc1)C(=O)O (stereo not drawn)
inactive: [7] 95 % of control | [8] 101 % of control | [9] 103 % of control

CN(CC(C)(C)C=O)CC(C)(C)C=O
inactive: [10] 112 % of control | [11] 101 % of control | [12] 108 % of control

Clc1ccccc1C(N1CCCCC1)N1CCCCC1
inactive: [10] 88 % of control | [11] 92 % of control | [12] 95 % of control

O=C1NC(=O)C(c2cccs2)(c2cccs2)N1
inactive: dose: 25.0 mg/kg/injection, schedule: Q01DX009 (ip), vehicle: water 98 % of control | dose: 50.0 mg/kg/injection, schedule: Q01DX009 (ip), vehicle: water 102 % of control | dose: 100.0 mg/kg/injection, schedule: Q01DX009 (ip), vehicle: water 98 % of control | dose: 100.0 mg/kg/injection, schedule: Q04DX003 (ip), vehicle: water 106 % of control | dose: 200.0 mg/kg/injection, schedule: Q01DX009 (ip), vehicle: water 91 % of control | dose: 200.0 mg/kg/injection, schedule: Q04DX003 (ip), vehicle: water 112 % of control | dose: 300.0 mg/kg/injection, schedule: Q01DX009 (ip), vehicle: water 90 % of control

COc1ccc(CCNC2CC3CCC2(C)C3(C)C)cc1OC (stereo not drawn)
inactive: [13] 100 % of control and 107 % of control | [14] 96 % of control | [15] 96 % of control

O=C(N/N=C/c1ccccc1O)C(O)(c1ccccc1)c1ccccc1
inactive: [16] 101 % of control | [17] 97 % of control | [18] 97 % of control

CC(=O)OCC1OC(Oc2ccc([N+](=O)[O-])cc2[N+](=O)[O-])C(OC(C)=O)C(OC(C)=O)C1OC(C)=O (stereo not drawn)
inactive: [19] 100 % of control | [20] 91 % of control | [21] 91 % of control

O=[N+]([O-])c1ccc(Cl)c(CNc2ncnc3c2ncn3C2CCCCO2)c1 (stereo not drawn)
inactive: [19] 102 % of control | [20] 92 % of control | [21] 102 % of control

Cc1ccc(S(=O)(=O)Cl)cc1C(=O)O
inactive: dose: 12.5 mg/kg/injection, schedule: Q01DX001 (ip), vehicle: saline with Tween-80 92 % of control and 99 % of control | dose: 25.0 mg/kg/injection, schedule: Q01DX001 (ip), vehicle: saline with Tween-80 99 % of control and 87 % of control | dose: 25.0 mg/kg/injection, schedule: Q01DX009 (ip), vehicle: saline with Tween-80 102 % of control | dose: 25.0 mg/kg/injection, schedule: Q04DX003 (ip), vehicle: saline with Tween-80 103 % of control | dose: 50.0 mg/kg/injection, schedule: Q01DX009 (ip), vehicle: saline with Tween-80 93 % of control | dose: 50.0 mg/kg/injection, schedule: Q04DX002 (ip), vehicle: saline with Tween-80 96 % of control and 108 % of control | dose: 50.0 mg/kg/injection, schedule: Q04DX003 (ip), vehicle: saline with Tween-80 97 % of control | dose: 100.0 mg/kg/injection, schedule: Q01DX001 (ip), vehicle: saline with Tween-80 94 % of control and 95 % of control | dose: 100.0 mg/kg/injection, schedule: Q01DX009 (ip), vehicle: saline with Tween-80 96 % of control | dose: 100.0 mg/kg/injection, schedule: Q04DX002 (ip), vehicle: saline with Tween-80 104 % of control and 86 % of control and 90 % of control | [19] 98 % of control

Nc1n[nH]c(N)n1.[Co]
inactive: dose: 50.0 mg/kg/injection, schedule: Q04DX003 (ip), vehicle: saline 103 % of control | dose: 100.0 mg/kg/injection, schedule: Q01DX009 (ip), vehicle: saline 100 % of control | dose: 100.0 mg/kg/injection, schedule: Q04DX003 (ip), vehicle: saline 100 % of control | dose: 200.0 mg/kg/injection, schedule: Q01DX009 (ip), vehicle: saline 94 % of control | dose: 200.0 mg/kg/injection, schedule: Q04DX003 (ip), vehicle: saline 108 % of control | dose: 400.0 mg/kg/injection, schedule: Q01DX009 (ip), vehicle: saline 107 % of control | dose: 400.0 mg/kg/injection, schedule: Q04DX003 (ip), vehicle: saline 105 % of control

CN1C(CSCC(F)(F)F)Nc2cc(Cl)c(S(N)(=O)=O)cc2S1(=O)=O (stereo not drawn)
inactive: [16] 108 % of control | [17] 106 % of control | [18] 103 % of control

CN(C)/C=N\c1ncnc2c1c(C#N)cn2C1OC(CO)C(O)C1O (stereo not drawn)
inactive: [1] 92 % of control | dose: 12.5 mg/kg/injection, schedule: Q01DX005 (ip), vehicle: saline 109 % of control | [2] 115 % of control | dose: 25.0 mg/kg/injection, schedule: Q01DX005 (ip), vehicle: saline 101 % of control | [3] 117 % of control

O=c1c2ccccc2nnn1-c1ccc([N+](=O)[O-])cc1
inactive: [13] 97 % of control | [14] 94 % of control | [15] 95 % of control

O=C1c2ccccc2-c2cc(Cl)cc(Cl)c21
inactive: [16] 95 % of control | [17] 96 % of control | [18] 102 % of control

CSc1nc(SC)c(Cl)c(C(Cl)Cl)n1
inactive: [7] 98 % of control | [8] 94 % of control | [9] 102 % of control

CSc1ccc(NC(=O)/C=C/c2ccccc2)cc1
inactive: [4] 106 % of control | [5] 112 % of control | [6] 102 % of control
